Assay results from PMC5706701, “Development of a homogenous high-throughput assay for inositol hexakisphosphate kinase 1 activity” (PLoS ONE, 2017).
Structures can show the parent of a compound that is named as a salt. Where two headings read alike, the source gives them in different places.

Target: T1, Human IP6K1 (Homo sapiens, UniProt Q92551)
T1 construct: GST (N, cleaved yes); made in house; host or cells: C43 E. coli, pGEX-6P-2
Assay: IP6K1 high-throughput screen of the Sigma LOPAC (ADP-Glo Max, single point);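 also: final compound concentration 10µM in 5% DMSO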
Assay type: biochemical

[1] = Sigma LOPAC single-point screen, ADP-Glo Max raw signal per well
[2] = Sigma LOPAC single-point screen, Z-score from plate average and StDev
[3] = LOPAC single-point screen, ADP-Glo Max raw signal per well
[4] = LOPAC single-point screen, Z-score from raw signal with plate average and StDev
[5] = LOPAC single-point screen, Z-score against plate average and StDev
[6] = LOPAC single-point screen, ADP-Glo Max luminescence raw signal per well
[7] = LOPAC single-point screen, Z-score relative to plate average and StDev
[8] = LOPAC single-point screen, Z-score from plate average and StDev

T1 sequence (Q92551 whole entry): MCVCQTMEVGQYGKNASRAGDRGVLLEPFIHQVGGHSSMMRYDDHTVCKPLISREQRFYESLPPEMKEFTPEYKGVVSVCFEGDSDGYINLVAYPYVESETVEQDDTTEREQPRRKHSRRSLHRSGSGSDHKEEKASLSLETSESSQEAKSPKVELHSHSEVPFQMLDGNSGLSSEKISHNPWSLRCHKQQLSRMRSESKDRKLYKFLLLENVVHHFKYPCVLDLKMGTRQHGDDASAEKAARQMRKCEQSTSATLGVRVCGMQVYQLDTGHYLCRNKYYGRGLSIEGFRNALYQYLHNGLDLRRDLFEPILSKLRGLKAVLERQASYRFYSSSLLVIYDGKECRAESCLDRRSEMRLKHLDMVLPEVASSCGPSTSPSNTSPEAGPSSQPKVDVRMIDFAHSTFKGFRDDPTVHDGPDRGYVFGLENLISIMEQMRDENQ

| Compound | Raw Signal [1] | Z-score [2] | Raw Signal [3] | further results |
| --- | --- | --- | --- | --- |
| O=C(O)CCCCCCCC(=O)O [Azelaic acid] | 63677 | 1.015 |  |  |
| C[C@]12CCC(=O)C=C1CC[C@@H]1[C@@H]2[C@@H](O)C[C@@]2(C)[C@H]1CC[C@]2(O)C(=O)CO [Hydrocortisone] |  |  | 54144 | Z-score [4]: -0.2078 |
| Nc1c2c(nc3ccccc13)CCCC2O.O=C(O)/C=C\C(=O)O (stereo not shown) [Hydroxytacrine maleate] |  |  | 53095 | Z-score [4]: -0.4208 |
| CCOC(=O)C1=C(C)NC(=S)NC1c1cccc(O)c1 (stereo not shown) [Monastrol] |  |  | 54262 | Z-score [5]: -0.0221 |
| Cl.Cl.Fc1ccc(C(OCCN2CCN(CCCc3ccccc3)CC2)c2ccc(F)cc2)cc1 [GBR-12909 dihydrochloride] | 60047 | 0.9911 |  |  |
| CCCCCCCCCCCCCCC[C@H](O)[C@H](N)CO (racemic) [DL-erythro-Dihydrosphingosine] |  |  | 54857 | Z-score [5]: -0.06296 |
| CCCCCCCCCCCCCCCCCC(=O)OC(CC(=O)O)C[N+](C)(C)C.[Cl-] (racemic) [DL-Stearoylcarnitine chloride] |  |  | 55265 | Z-score [4]: -0.1474 |
| CC(C)[N+]1(C)[C@@H]2CC[C@H]1C[C@@H](OC(=O)C(CO)c1ccccc1)C2 (stereo partly shown) [Ipratropium bromide] | 56944 | 0.3609 |  |  |
| CCC(=O)c1ccc2c(c1)N(CCCN(C)C)c1ccccc1S2 [Propionylpromazine hydrochloride] |  |  | 56049 | Z-score [5]: 0.004895 |
| Cc1cccc(/C=C/c2ccccc2)n1 [SIB 1893] |  |  | 55669 | Z-score [5]: -0.06893 |
| CCC(C)N(C)C(=O)c1cc2ccccc2c(-c2ccccc2Cl)n1 (stereo not shown) [PK 11195] |  |  |  | Raw Signal [6]: 54307; Z-score [7]: -0.6351 |
| O=C(O)/C=C\C(=O)O.O=C(O)/C=C\C(=O)O.c1ccc2nc(N3CCNCC3)ccc2c1 [Quipazine dimaleate] |  |  | 57228 | Z-score [5]: 0.234 |
| CCC1(c2ccccc2)C(=O)NCNC1=O [Primidone] | 58828 | 0.5448 |  |  |
| Cl.NC1(C(=O)O)CC1 | 65481 | 1.333 |  |  |
| CC(/C=C/c1cccc(Oc2ccc(F)cc2)c1)N(O)C(N)=O (stereo not shown) [BWB70C] |  |  | 58720 | Z-score [5]: 0.1421 |
| Cc1nc2c([nH]1)c(=O)n(C)c(=O)n2Cc1ccco1 [Furafylline] |  |  | 55994 | Z-score [5]: 0.1679 |
| COc1ccc2c(c[n+](C)c3c4cc5c(cc4ccc23)OCO5)c1OC [Chelerythrine chloride] |  |  |  | Raw Signal [6]: 66575; Z-score [8]: 1.5256 |
| CN(C)CC[C@@H](c1ccc(Cl)cc1)c1ccccn1 [(+)-Chlorpheniramine maleate] |  |  | 57307 | Z-score [4]: -0.1068 |
| Cl.NC(N)=NCCNS(=O)(=O)c1cccc2cnccc12 [HA-1004 hydrochloride] |  |  |  | Raw Signal [6]: 50838; Z-score [7]: -0.8792 |
| Br.C[N+](C)(C)CCCCCNCC12CC3CC(CC(C3)C1)C2.[Br-] [IEM-1460] |  |  | 53178 | Z-score [4]: -0.404 |
| COc1ccc(Cl)cc1C(=O)NCCc1ccc(S(=O)(=O)NC(=O)NC2CCCCC2)cc1 [Glibenclamide] | 57524 | 0.4787 |  |  |

| Compound | Raw Signal [1] | Z-score [2] | Raw Signal [3] | further results |
| --- | --- | --- | --- | --- |
| 17alpha-hydroxyprogesterone | 57278 | 0.4287 |  |  |
| CN1CCc2cccc3c2[C@H]1Cc1ccc(O)c(O)c1-3 [Apomorphine hydrochloride hemihydrate] |  |  |  | Raw Signal [6]: 53248; Z-score [7]: -0.8217 |
| CCN(CC)CC.Nc1ncnc2c1ncn2C1OC2COP(O)(=S)O[C@@H]2[C@@H]1O (stereo partly shown) [Rp-cAMPS triethylamine] |  |  |  | Raw Signal: 55695; Z-score: -0.3907 |
| Cl.Cl.Oc1ccc2c3c1O[C@H]1c4[nH]c5c(c4C[C@@]4(O)[C@@H](C2)N(CC2CC2)CC[C@]314)C[C@@]1(O)[C@H]2Cc3ccc(O)c4c3[C@@]1(CCN2CC1CC1)[C@H]5O4 [nor-Binaltorphimine dihydrochloride] | 56488 | 0.3519 |  |  |
| CC[C@@H]1Cc2cc(O)ccc2C2=C1c1ccc(O)cc1C[C@H]2CC |  |  |  | Raw Signal [6]: 51869; Z-score [7]: -0.6698 |
| CN(C)c1ccc(/C=C2\C(=O)Nc3ccccc32)cc1 [SU 4312] | 60273 | 0.8255 |  |  |
| CNc1cc(NS(=O)(=O)c2ccc(N)cc2)nc(NC)n1.Cl.Cl [Ro 04-6790 dihydrochloride] |  |  |  | Raw Signal [6]: 63150; Z-score [8]: 1.384 |
| CCCCCCCC/C=C\CCCCCCCC(=O)NCCc1ccc(O)c(O)c1 [N-Oleoyldopamine] |  |  |  | Raw Signal [6]: 53486; Z-score [7]: -0.493 |
| Oc1ccc(Cn2cc[nH]c2=S)cc1 [1-(4-Hydroxybenzyl)imidazole-2-thiol] |  |  |  | Raw Signal [6]: 52381; Z-score [7]: -0.5658 |
| CN1CCN(CC(=O)N2c3ccccc3C(=O)Nc3cccnc32)CC1 [Pirenzepine dihydrochloride] | 62871 | 1.33 |  |  |
| O=C(Nc1cc(C(=O)Nc2ccc(S(=O)(=O)[O-])cc2S(=O)(=O)[O-])cc(C(=O)Nc2ccc(S(=O)(=O)[O-])cc2S(=O)(=O)[O-])c1)Nc1cc(C(=O)Nc2ccc(S(=O)(=O)[O-])cc2S(=O)(=O)[O-])cc(C(=O)Nc2ccc(S(=O)(=O)[O-])cc2S(=O)(=O)[O-])c1.[Na+].[Na+].[Na+].[Na+].[Na+].[Na+].[Na+].[Na+] [NF449 octasodium salt] |  |  |  | Raw Signal [6]: 9787; Z-score [7]: -7.495 |
| SKF 83565 hydrobromide | 61448 | 1.054 |  |  |
| COC(=O)C(C)(N)Cc1ccc(O)cc1.Cl (racemic) |  |  | 52897 | Z-score [4]: -0.2515 |
| C[N+]1(C)CCc2cc3c(cc2[C@H]1[C@@H]1OC(=O)c2c1ccc1c2OCO1)OCO3.[Br-] [(-)-Bicuculline methbromide, 1(S), 9(R)] |  |  | 56332 | Z-score [4]: -0.2785 |
| C#CCn1c(=O)c2c(ncn2C)n(C)c1=O [3,7-Dimethyl-I-propargylxanthine] |  |  |  | Raw Signal [6]: 50513; Z-score [7]: -0.9452 |
| O=C(O)CCC(=O)N1CCC[C@H]1C(=O)O [N-Succinyl-L-proline] |  |  | 55499 | Z-score [4]: -0.102 |
| NS(=O)(=O)c1cc(C(=O)O)c(NCc2ccco2)cc1Cl [Furosemide] |  |  | 53546 | Z-score [4]: -0.3292 |
| CCCCCC(O)c1cccc(OCc2ccc3ccccc3n2)c1 (stereo not shown) [REV 5901] | 62376 | 1.234 |  |  |
| Cl.NCCCCCCNS(=O)(=O)c1cccc2c(Cl)cccc12 [W-7 hydrochloride] |  |  | 57979 | Z-score [5]: 0.01161 |
| OC(CN1CCN(c2cccc(Cl)c2)CC1)C(c1ccccc1)c1ccccc1 (stereo not shown) [BRL 15572] |  |  | 57949 | Z-score [5]: 0.006323 |
| Cc1cnc(C(=O)NCCc2ccc(S(=O)(=O)NC(=O)NC3CCCCC3)cc2)cn1 [Glipizide] | 60018 | 0.9852 |  |  |

| Compound | Raw Signal [1] | Z-score [2] | Raw Signal [3] | further results |
| --- | --- | --- | --- | --- |
| COc1ccc(Cc2nccc3cc(OC)c(OC)cc23)cc1OC [Papaverine hydrochloride] | 61808 | 1.246 |  |  |
| Cl.NCC(O)c1cc(O)c(O)cc1F (stereo not shown) [6-Fluoronorepinephrine hydrochloride] |  |  |  | Raw Signal [6]: 54023; Z-score [7]: -0.6852 |
| O=C1NCC2(CCN(CCc3ccccc3)CC2)O1 [Fenspiride hydrochloride] |  |  | 54758 | Z-score [5]: -0.08307 |
| Cl.NC1(C(=O)O)CCCCC1 |  |  |  | Raw Signal [6]: 53186; Z-score [7]: -0.8326 |
| Cl.N=C(N)NN [Aminoguanidine hydrochloride] |  |  | 58743 | Z-score [5]: 0.1462 |
| S=C=Nc1cccc(C2(N3CCCCC3)CCCCC2)c1 [Metaphit methanesulfonate] | 56894 | 0.4201 |  |  |
| C[N+]1(C)[C@@H]2CC(OC(=O)[C@H](CO)c3ccccc3)C[C@H]1[C@@H]1O[C@@H]12.O=[N+]([O-])[O-] (single isomer, unassigned; (-)) [(-)-Scopolamine methyl nitrate] |  |  | 57036 | Z-score [5]: 0.1966 |
| Oligomycin A |  |  | 55071 | Z-score [5]: 0.1138 |
| CCCCCCCCCCCCCCCCOCC(COCC(F)(F)F)OP(=O)(O)OC (stereo not shown) [MJ33] | 57341 | 0.4953 |  |  |
| NC(=O)C(=O)O [Sodium Oxamate] |  |  | 56283 | Z-score [5]: 0.3175 |
| COCCOC(=O)C1=C(C)NC(C)=C(C(=O)OC(C)C)C1c1cccc([N+](=O)[O-])c1 (stereo not shown) [Nimodipine] |  |  | 55940 | Z-score [5]: 0.2599 |
| CCCCNc1c(C(=O)OCC)c(C)nc2c1cnn2CC [Tracazolate] | 59222 | 0.6213 |  |  |
| CC(C)(CO)Cc1cc(C(C)(C)C)c(O)c(C(C)(C)C)c1 [CGP-7930] | 64858 | 1.223 |  |  |
| COc1ccc([C@@H]2Sc3ccccc3N(CCN(C)C)C(=O)[C@@H]2OC(C)=O)cc1 [Diltiazem hydrochloride] |  |  |  | Raw Signal [6]: 65486; Z-score [8]: 2.096 |
| N[C@@H](Cc1ccc(N(CCCl)CCCl)cc1)C(=O)O [Melphalan] | 56974 | 0.4336 |  |  |
| Br.CN1CCc2cc(O)cc3c2[C@H]1Cc1ccc(O)c(O)c1-3 |  |  |  | Raw Signal [6]: 51557; Z-score [7]: -0.7332 |
| CN(C(=O)CCCOc1ccc2[nH]c(=O)ccc2c1)C1CCCCC1 [Cilostamide] |  |  |  | Raw Signal [6]: 54164; Z-score [7]: -0.6603 |
| O=C(CCCN1CCC(O)(c2cccc(C(F)(F)F)c2)CC1)c1ccc(F)cc1 [Trifluperidol hydrochloride] |  |  | 56876 | Z-score [5]: 0.1656 |
| COc1ccc2c(c1)c(CC(=O)O)c(C)n2Cc1ccc(F)cc1 |  |  | 54531 | Z-score [4]: -0.1292 |
| CC(=O)Nc1nnc(S(N)(=O)=O)s1 [Acetazolamide] |  |  |  | Raw Signal [6]: 54920; Z-score [7]: -0.5272 |
